The subject of assay [1] is Radical scavenging activity. Briefly: Antioxidant activity assessed as DPPH radical scavenging activity at 50 uM after 20 mins. It counts as functional.
Another assay relates to Glycine max. Description: (§1) Inhibition of soybean lipoxygenase by UV absorbance based assay.
Assay [2] in a line: Antioxidant activity against AAPH-induced linoleic acid peroxidation by UV spectrophotometry analysis. It counts as functional.
For assay [3], the system named is Radical scavenging activity. Briefly: Antioxidant activity assessed as DPPH radical scavenging activity at 50 uM after 60 mins. It counts as functional. On the technique in general: Loss of DPPH colour is used to gauge radical scavenging.
Assay [4] relates to Radical scavenging activity. Description: Antioxidant activity assessed as DPPH radical scavenging activity at 10 uM after 20 mins. The class given is functional.
Assay [5] has as its system Radical scavenging activity. Description: Antioxidant activity assessed as DPPH radical scavenging activity at 10 uM after 60 mins. It counts as functional.
The target of another assay is Prothrombin (Homo sapiens, UniProt P00734). Briefly: Inhibition of thrombin using S-2238 as substrate after 15 mins by spectrophotometric analysis.
A short description of assay [6]: as §1. More on the design: species or system Glycine max.
Assay [7] is described as follows: Antioxidant activity against AAPH-induced linoleic acid peroxidation at 100 uM by UV spectrophotometry analysis. The class given is functional.

The term inhibition denotes the share of the control response that was lost under treatment. Low values mean a weak effect, high ones a strong effect. Broadly, the IC50 is the midpoint of a concentration-inhibition curve. Higher therefore signals lower potency. The Ki is a measure of affinity in units of concentration, obtained from inhibition or displacement. Low values mean higher affinity, high ones lower affinity.

Structures are written as SMILES. A value given as a limit tells only on which side of the number the result lay.

`CCOC(=O)C(=O)N(Cc1cccc(F)c1)c1ccc2c(c1)N(C)CC(C)(COc1ccc(C(=N)N)cc1)O2` (configuration not stated): the Activity in assay [1] stood at 11%; in [3], 14%; in assay [4], 12%; in assay [5], 24%. In the assay with Glycine max, this compound returned an inhibition above 0%. For the same compound, the IC50 in assay [2] stood at 90 µM.

`CCOC(=O)CN(Cc1ccc(F)c(F)c1)c1ccc2c(c1)N(C)CC(C)(COc1ccc(C(=N)N)cc1)O2` (configuration not stated) had a Ki at Prothrombin of 0.66 µM. For the same compound, the Activity came out at 11% in assay [1], 16% in [3], 8% in assay [4] and 21% in assay [5]. In the assay with Glycine max, this compound showed an inhibition above 0%. Further, in [2], the midpoint of inhibition, the IC50, lay at 68 µM.

In the case of `CCOC(=O)C(=O)N(Cc1cc(F)cc(F)c1)c1ccc2c(c1)N(C)CC(C)(COc1ccc(C(=N)N)cc1)O2` (configuration not stated), the Activity in [1] was 23%; in assay [3], 28%; in assay [4] it was 25%; in assay [5], 36%. For the same compound, the IC50 in [6] worked out at 99 µM; in assay [2], 69 µM.

`CCOC(=O)CN(Cc1cc(F)cc(F)c1)c1ccc2c(c1)N(C)CC(C)(COc1ccc(C(=N)N)cc1)O2` (configuration not stated) yielded a Ki on Prothrombin of 0.95 µM. Besides, the Activity in [1] was 8%; in assay [3], 10%; in assay [4] it was 8%; in assay [5], 18%. In the assay with Glycine max, the inhibition stood at 41.7%. Also, the IC50 in assay [2] turned out to be 36 µM.

In turn, `CCOC(=O)CN(Cc1ccc(F)c(F)c1)c1ccc2c(c1)OC(C)(COc1ccc(C(=N)N)cc1)CN2C` (configuration not stated) had a Ki at Prothrombin of 0.43 µM. Further, the Activity in assay [1] was found to be 70%; in [3], 81%; in assay [4], 84%; in assay [5], 90%. In addition, in the assay with Glycine max, the inhibition is above 0%. In addition, 70 µM corresponded to half-maximal inhibition in assay [2] (IC50).

On to `CCOC(=O)CN(Cc1ccc(F)cc1)c1ccc2c(c1)N(C)CC(C)(COc1ccc(C(=N)N)cc1)O2` (configuration not stated), for which, on Prothrombin, the affinity corresponds to a Ki of 0.69 µM. The Activity in [1] came out at 11%; in [3] it was 14%; in [4] it was 11%; in [5], 24%. The IC50 in [6] was 73 µM; in assay [2] it was 77 µM.

In turn, `CCOC(=O)CN(Cc1cc(F)cc(F)c1)c1ccc2c(c1)OC(C)(COc1ccc(C(=N)N)cc1)CN2C` (configuration not stated) came in with a Ki on Prothrombin of 0.48 µM. The Activity in assay [1] came to 54%; in assay [3], 68%; in assay [4], 75%; in assay [5], 86%. Also, in the assay on Glycine max, the inhibition is above 0%. The same compound registered an IC50 in [2] of 69 µM.

`CCOC(=O)C(=O)N(Cc1ccc(F)c(F)c1)c1ccc2c(c1)N(C)CC(C)(COc1ccc(C(=N)N)cc1)O2` (configuration not stated) registered a Ki at Prothrombin of 0.37 µM. Further, the Activity stood at 23% in assay [1], 28% in assay [3], 35% in assay [4] and 46% in assay [5]. In the assay on Glycine max, the inhibition was above 0%. The IC50 in assay [2] is 61.5 µM.

The compound `Cc1c(C)c2c(c(C)c1O)CCC(C)(C(=O)O)O2` (configuration not stated) came in with an inhibition in assay [7] of 63%.

Turning to `CCOC(=O)CN(Cc1ccc(F)cc1)c1ccc2c(c1)OC(C)(COc1ccc(C(=N)N)cc1)CN2C` (configuration not stated), the Ki on Prothrombin was found to be 0.31 µM. For the same compound, the Activity came out at 62% in [1], 70% in assay [3], 88% in [4] and 93% in assay [5]. Also, the inhibition in the assay on Glycine max is above 0%. In [2], this compound gave an IC50 of 94.5 µM.

With `CC(Cc1ccc(O)c(O)c1)C(C)Cc1ccc(O)c(O)c1` (configuration not stated), the Activity in assay [1] amounted to 68%; in assay [3] it was 81%; in assay [4], 83%; in [5], 83%.

In assay [6], `O=C(O)/C=C/c1ccc(O)c(O)c1` [CAFFEIC ACID] came in with a concentration for half-maximal inhibition (IC50) of 600 µM.

For the compound `CCOC(=O)CN(Cc1cccc(F)c1)c1ccc2c(c1)OC(C)(COc1ccc(C(=N)N)cc1)CN2C` (configuration not stated), at Prothrombin, the affinity, expressed as Ki, was 0.35 µM. In addition, the Activity in [1] turned out to be 48%; in [3], 63%; in [4] it was 71%; in assay [5] it was 85%. Moreover, the inhibition with Glycine max was above 0%. The midpoint of inhibition in assay [2], the IC50, lay at 81 µM.

In the case of `CCOC(=O)C(=O)N(Cc1ccc(F)cc1)c1ccc2c(c1)N(C)CC(C)(COc1ccc(C(=N)N)cc1)O2` (configuration not stated), the Activity was found to be 10% in [1], 12% in assay [3], 10% in [4] and 21% in assay [5]. In the assay with Glycine max, this compound registered an inhibition above 0%. The IC50 in [2] was 51 µM.

`CCOC(=O)CN(Cc1cccc(F)c1)c1ccc2c(c1)N(C)CC(C)(COc1ccc(C(=N)N)cc1)O2` (configuration not stated): on Prothrombin, the affinity corresponds to a Ki of 0.9 µM. The Activity in assay [1] turned out to be 11%; in assay [3], 14%; in assay [4], 10%; in [5], 23%. This compound also registered an inhibition with Glycine max of 9.7%. The same compound came in with an IC50 in assay [2] of 59 µM.

Values taken from ChEMBL document CHEMBL1806438, “Thrombin inhibitors with lipid peroxidation and lipoxygenase inhibitory activities” (Bioorg Med Chem Lett, 2011).
